Where two headings read alike, the source gives them in different places.

Series [1] addresses T1, SIRT7 protein (Homo sapiens, UniProt Q9NRC8).
T1 construct: purchased SignalChem S41-30H
T1 sequence (Q9NRC8 1-400): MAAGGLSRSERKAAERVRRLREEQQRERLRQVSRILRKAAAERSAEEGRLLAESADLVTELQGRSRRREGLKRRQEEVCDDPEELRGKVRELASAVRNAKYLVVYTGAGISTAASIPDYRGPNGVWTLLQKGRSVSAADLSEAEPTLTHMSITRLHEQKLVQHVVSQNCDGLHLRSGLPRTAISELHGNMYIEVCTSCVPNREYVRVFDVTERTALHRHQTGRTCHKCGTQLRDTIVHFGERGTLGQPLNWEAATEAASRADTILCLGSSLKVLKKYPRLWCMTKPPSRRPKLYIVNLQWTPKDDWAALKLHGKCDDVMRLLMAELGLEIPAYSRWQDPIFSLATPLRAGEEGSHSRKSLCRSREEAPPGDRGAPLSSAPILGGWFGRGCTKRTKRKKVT
In words: SIRT Glo assay, inhibitory activity against Sirt7. The format is biochemical. Conditions: 10 μM compound. Summed up: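 Recombinant SIRT7 (20 ng per well) pre-incubated 30 min with compound in SIRT Glo buffer, then SIRT Glo substrate added for 1 h before luminescence reading. Background-subtracted signal expressed as % inhibition relative to no-compound control.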

In series [2] the test system is COLO32ODM cells. The series is described as follows: LDH cytotoxicity test, cancer cell line. As to conditions: 48 hours. In kind it is cell-based, human.
Description: (§3) LDH released is measured to determine whether a compound is toxic.
(§4) Thermo's Cat. No. 88953 LDH Cytotoxicity assay kit was used. 20,000 cells were seeded in a 96 well plate and treated with 100 μM and 500 μM compounds after 24 hours of culture. After 48 hours, transfer 50 μL of the compound-treated culture supernatant to a new 96-well plate, add 50 μL of substrate mix buffer provided in the kit, block light, and react at room temperature for 30 minutes. After adding 50 μL of Stop solution, the absorbance was measured at 490 nm using a microplate reader (Molecular Device, spectramax i3).
In series [3] the test system is COLO32ODM tumor xenograft. In words: In vivo mouse tumor xenograft, COLO32ODM. Conditions: for tumor size compared to the control group: nude mice, 3 weeks. As for the experimental part: (§1) The compounds of the present invention were administered to mouse tumor xenograft to measure tumor suppression in vivo test. BALB/C-nu female 5-week-old mice were introduced. COLO32ODM and SW480 cells, which are human colorectal cancer cells, were isolated from culture flasks using trypsin and prepared at a concentration of 1×10^8 cell/ml. It was mixed with Matrigel (Gibco, Cat. No. A14133-02) at a ratio of 1:1 and injected 100 μL subcutaneously into the dorsal side of 5-week-old mice. After 2 weeks, when the volume of the mouse tumor reached 100 mm^3, oral administration of the compound was started 5 times a week. (Day 0), After that, it was conducted for 3 weeks.
(§2) In the negative control group, 0.1% Carboxylmethyl cellulose and 0.2% tween 80 solution were administered instead of the compound according to the same administration route and administration frequency. 6 mice were used for each experimental group (FIG. 3). The size of the tumor was measured in the long axis (length, L) and the short axis (width, W) once every 3 days, and the tumor volume (mm^3) was calculated as (L×W×W)/2 thereby the average for each group was calculated. Statistical processing was performed using the GraphPad Prism6 program, and a p-value of less than 0.05 was considered significant.
A 5-week-old nude mouse whose thymus was removed and whose T cells were reduced and whose immune system was suppressed was introduced, and human colorectal cancer cell lines, COLO32ODM and SW480, were subcutaneously injected.

The test system of series [4] is SW480 tumor xenograft. In words: In vivo mouse tumor xenograft, SW480. Conditions: nude mice, oral 10 mpk, 20 mpk, 40 mpk, 3 weeks. The protocol: as §1
as §2, with “Dissolve the compound in 0.1% Carboxylmethyl cellulose (CMC) and 0.2% tween 80 solution at concentrations of 2 mg/ml, 4 mg/ml, and 8 mg/ml, and 100 ul was orally administered to achieve concentrations of 10 mpk, 20 mpk, and 40 mpk. In” for “In”, “Statistical processing was performed using the GraphPad Prism6 program, and a p-value of less than 0.05 was considered significant.” left out

Series [5] concerns WI38 cells. Conditions: human, 48 h.
Description: as §3, §4

In series [1], `CCNC(=O)N1CCN(Cc2ccc(C(=O)Nc3nc4ccccc4s3)cc2)CC1` [Compound 1-37, 4-(4-(benzo[d]thiazol-2-ylcarbamoyl)benzyl)-N-ethylpiperazine-1-carboxamide] showed an inhibition at 10 µM of 81%. Moreover, the “cytotoxicity (LDH release) compared to the positive control that damaged all cell membranes” value in series [2] (100 μM) was 62.1%; in series [2] (500 μM), 62.0%; in series [5] (100 μM) it was 29.9%; in series [5] (500 μM), 41.6%. Also, the “tumor size compared to the control group” value was “reduced” in series [3] (oral 10 mpk, 20 mpk, 40 mpk) and “reduced” in series [4]. Moreover, the “dose dependence of tumor formation inhibitory effect” value in series [3] (oral 10, 20, 40 mpk) is on record as “concentration-dependent tumor formation inhibitory effect”. The “tumor formation inhibitory effect” value in series [3] (oral 40 mpk) was “most significant tumor formation inhibitory effect”.
For `O=C(Nc1nc2ccccc2s1)c1c(F)cc(C=C2CCN(C(=O)Nc3ccccc3)CC2)cc1F` [Compound 1-101, 4-(4-(benzo[d]thiazol-2-ylcarbamoyl)-3,5-difluorobenzylidene)-N-phenylpiperidine-1-carboxamide], the inhibition at 10 µM in series [1] amounted to 100%.
Still for that read-out and setting: the same measure for `O=C(Nc1nc2ccccc2s1)c1c(F)cc(C=C2CCN(C(=O)Nc3ccc(C(F)(F)F)cc3)CC2)cc1F` [Compound 1-102, 4-(4-(benzo[d]thiazol-2-ylcarbamoyl)-3,5-difluorobenzylidene)-N-(4-(trifluoromethyl)phenyl)piperidine-1-carboxamide]: 37%; for `CC(C)(C)OC(=O)N1CCC(=Cc2ccc(C(=O)Nc3nc4ccccc4s3)c(Cl)c2)CC1` [Compound 1-103, tert-butyl 4-(4-(benzo[d]thiazol-2-ylcarbamoyl)-3-chlorobenzylidene)piperidine-1-carboxylate]: 44%; for `O=C(Nc1nc2ccccc2s1)c1ccc(C=C2CCNCC2)cc1Cl` [Compound 1-104, N-(benzo[d]thiazol-2-yl)-2-chloro-4-(piperidin-4-ylidenemethyl)benzamide]: 92%.
Regarding `CCNC(=O)N1CCC(=Cc2ccc(C(=O)Nc3nc4ccccc4s3)c(Cl)c2)CC1` [Compound 1-105, 4-(4-(benzo[d]thiazol-2-ylcarbamoyl)-3-chlorobenzylidene)-N-ethylpiperidine-1-carboxamide], in series [1], the inhibition at 10 µM was found to be 100%. For the same molecule, the “tumor size compared to the control group” value in series [3] is “reduced”.
`O=C(Nc1nc2ccccc2s1)c1ccc(C=C2CCN(C(=O)Nc3ccccc3)CC2)cc1Cl` [Compound 1-106, 4-(4-(benzo[d]thiazol-2-ylcarbamoyl)-3-chlorobenzylidene)-N-phenylpiperidine-1-carboxamide] showed an inhibition at 10 µM in series [1] of 99%. The “tumor size compared to the control group” value in series [3] was “reduced”.
In turn, `O=C(Nc1nc2ccccc2s1)c1ccc(C=C2CCN(C(=O)Nc3ccc(C(F)(F)F)cc3)CC2)cc1Cl` [Compound 1-107, 4-(4-(benzo[d]thiazol-2-ylcarbamoyl)-3-chlorobenzylidene)-N-(4-(trifluoromethyl)phenyl)piperidine-1-carboxamide] yielded an inhibition at 10 µM in series [1] of 34%.
With `O=C(Nc1nc2ccccc2s1)c1ccc(C=C2CCN(C(=O)Nc3ccc(F)cc3)CC2)cc1Cl` [Compound 1-108, 4-(4-(benzo[d]thiazol-2-ylcarbamoyl)-3-chlorobenzylidene)-N-(4-fluorophenyl)piperidine-1-carboxamide], in series [1], testing at 10 µM gave an inhibition of 100%.

In general, inhibition refers to the share of the control response that was lost under treatment. High values mean a response far below the control, low ones a response near the control.

Values taken from patent US20240116897A1, “BENZOTHIAZOLE AND BENZIMIDAZOLE DERIVATIVES, PHARMACEUTICALLY ACCEPTABLE SALT THEREOF, PREPARATION METHOD THEREFOR, AND PHARMACEUTICAL COMPOSITION COMPRISING SAME AS ACTIVE INGREDIENT” (KOREA RESEARCH INSTITUTE OF CHEMICAL TECHNOLOGY, priority 2021, published 2024).
